How the values were obtained:
Experiment in all cases: relative viability (nuclei count vs DMSO), 5 days (fraction); higher = more cells survive
CUDC-101 + Palbociclib = compound: C#Cc1cccc(Nc2ncnc3cc(OC)c(OCCCCCCC(=O)NO)cc23)c1 [CUDC-101] + CC(=O)c1c(C)c2cnc(Nc3ccc(N4CCNCC4)cn3)nc2n(C2CCCC2)c1=O [Palbociclib] (partner 0.5 µM)
Procedure, shortened: (§1)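 Lung cancer cell lines in 1536-well plates got either a single drug or a fixed anchor-drug dose together with five library-drug doses (not always all listed) in √10 steps, by pin tool, on the day after seeding. Nuclei were counted after 5 days, and relative viability is the treated-to-vehicle ratio of nuclei counts. Values are medians of duplicate plates.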

[1] = compound: C1=CC=C2C(=C1)N=C(S2)C(C#N)C3=NC(=NC=C3)NCCC4=CN=CC=C4 + CS(=O)(=O)CCNCc1ccc(-c2ccc3ncnc(Nc4ccc(OCc5cccc(F)c5)c(Cl)c4)c3c2)o1 [Lapatinib] (partner 2 µM)
Procedure, shortened: as §1

[2] = compound: C1=CC=C2C(=C1)N=C(S2)C(C#N)C3=NC(=NC=C3)NCCC4=CN=CC=C4 + Cc1nc(NC(=O)N2CCC[C@H]2C(N)=O)sc1-c1ccnc(C(C)(C)C(F)(F)F)c1 [Alpelisib] (partner 2 µM)
Procedure, shortened: as §1

Vandetanib + Luminespib = compound: COc1cc2/c(=N/c3ccc(Br)cc3F)nc[nH]c2cc1OCC1CCN(C)CC1 [Vandetanib] + CCNC(=O)c1noc(-c2cc(C(C)C)c(O)cc2O)c1-c1ccc(CN2CCOCC2)cc1 [Luminespib] (partner 0.01 µM)
Procedure, shortened: as §1

Cell Line: NCI-H2023
- relative viability (CUDC-101 + Palbociclib; first compound 0.01 µM): 0.42
- relative viability (CUDC-101 + Palbociclib; first compound 0.03162 µM): 0.342
- relative viability (CUDC-101 + Palbociclib; first compound 0.1 µM): 0.457
- relative viability (CUDC-101 + Palbociclib; first compound 0.3162 µM): 0.416
- relative viability (CUDC-101 + Palbociclib; first compound 1 µM): 0.361
- relative viability ([1]; first compound 0.005 µM): 0.793
- relative viability ([1]; first compound 0.01581 µM): 0.85
- relative viability ([1]; first compound 0.05 µM): 0.793
- relative viability ([1]; first compound 0.1581 µM): 1.2
- relative viability ([1]; first compound 0.5 µM): 0.711
- relative viability ([2]; first compound 0.005 µM): 0.625
- relative viability ([2]; first compound 0.01581 µM): 0.659
- relative viability ([2]; first compound 0.05 µM): 0.649
- relative viability ([2]; first compound 0.1581 µM): 0.681
- relative viability ([2]; first compound 0.5 µM): 0.404
- relative viability (Vandetanib + Luminespib; first compound 0.02 µM): 0.811
- relative viability (Vandetanib + Luminespib; first compound 0.06325 µM): 0.604
- relative viability (Vandetanib + Luminespib; first compound 0.2 µM): 0.796
- relative viability (Vandetanib + Luminespib; first compound 0.6325 µM): 0.731
- relative viability (Vandetanib + Luminespib; first compound 2 µM): 0.497

Cell Line: SK-LU-1
- relative viability (CUDC-101 + Palbociclib; first compound 0.01 µM): 0.371
- relative viability (CUDC-101 + Palbociclib; first compound 0.03162 µM): 0.354
- relative viability (CUDC-101 + Palbociclib; first compound 0.1 µM): 0.407
- relative viability (CUDC-101 + Palbociclib; first compound 0.3162 µM): 0.455
- relative viability (CUDC-101 + Palbociclib; first compound 1 µM): 0.311
- relative viability ([1]; first compound 0.01581 µM): 0.856
- relative viability ([1]; first compound 0.05 µM): 0.934
- relative viability ([1]; first compound 0.1581 µM): 1.18
- relative viability ([1]; first compound 0.5 µM): 0.832
- relative viability ([2]; first compound 0.01581 µM): 0.962
- relative viability ([2]; first compound 0.05 µM): 0.824
- relative viability ([2]; first compound 0.1581 µM): 1.27
- relative viability ([2]; first compound 0.5 µM): 0.858
- relative viability (Vandetanib + Luminespib; first compound 0.02 µM): 0.202
- relative viability (Vandetanib + Luminespib; first compound 0.06325 µM): 0.204
- relative viability (Vandetanib + Luminespib; first compound 0.2 µM): 0.156
- relative viability (Vandetanib + Luminespib; first compound 0.6325 µM): 0.196
- relative viability (Vandetanib + Luminespib; first compound 2 µM): 0.217

Cell Line: LCLC-97TM1
- relative viability (CUDC-101 + Palbociclib; first compound 0.01 µM): 0.203
- relative viability (CUDC-101 + Palbociclib; first compound 0.03162 µM): 0.228
- relative viability (CUDC-101 + Palbociclib; first compound 0.1 µM): 0.252
- relative viability (CUDC-101 + Palbociclib; first compound 0.3162 µM): 0.173
- relative viability (CUDC-101 + Palbociclib; first compound 1 µM): 0.164
- relative viability ([1]; first compound 0.005 µM): 0.971
- relative viability ([1]; first compound 0.01581 µM): 0.803
- relative viability ([1]; first compound 0.05 µM): 0.897
- relative viability ([1]; first compound 0.1581 µM): 0.954
- relative viability ([1]; first compound 0.5 µM): 0.674
- relative viability ([2]; first compound 0.005 µM): 0.217
- relative viability ([2]; first compound 0.01581 µM): 0.208
- relative viability ([2]; first compound 0.05 µM): 0.257
- relative viability ([2]; first compound 0.1581 µM): 0.257
- relative viability ([2]; first compound 0.5 µM): 0.217
- relative viability (Vandetanib + Luminespib; first compound 0.02 µM): 0.691
- relative viability (Vandetanib + Luminespib; first compound 0.06325 µM): 0.787
- relative viability (Vandetanib + Luminespib; first compound 0.2 µM): 0.749
- relative viability (Vandetanib + Luminespib; first compound 0.6325 µM): 0.721
- relative viability (Vandetanib + Luminespib; first compound 2 µM): 0.778

Cell Line: NCI-H1915
- relative viability (CUDC-101 + Palbociclib; first compound 0.01 µM): 0.547
- relative viability (CUDC-101 + Palbociclib; first compound 0.03162 µM): 0.493
- relative viability (CUDC-101 + Palbociclib; first compound 0.1 µM): 0.524
- relative viability (CUDC-101 + Palbociclib; first compound 0.3162 µM): 0.472
- relative viability (CUDC-101 + Palbociclib; first compound 1 µM): 0.339
- relative viability ([1]; first compound 0.005 µM): 0.681
- relative viability ([1]; first compound 0.01581 µM): 0.975
- relative viability ([1]; first compound 0.05 µM): 1.01
- relative viability ([1]; first compound 0.1581 µM): 1.14
- relative viability ([1]; first compound 0.5 µM): 0.835
- relative viability ([2]; first compound 0.005 µM): 0.997
- relative viability ([2]; first compound 0.01581 µM): 1.05
- relative viability ([2]; first compound 0.05 µM): 1.04
- relative viability ([2]; first compound 0.1581 µM): 1.12
- relative viability ([2]; first compound 0.5 µM): 1.05
- relative viability (Vandetanib + Luminespib; first compound 0.02 µM): 0.744
- relative viability (Vandetanib + Luminespib; first compound 0.06325 µM): 0.808
- relative viability (Vandetanib + Luminespib; first compound 0.2 µM): 0.766
- relative viability (Vandetanib + Luminespib; first compound 0.6325 µM): 0.766
- relative viability (Vandetanib + Luminespib; first compound 2 µM): 0.733

Cell Line: NCI-H358
- relative viability (CUDC-101 + Palbociclib; first compound 0.01 µM): 0.148
- relative viability (CUDC-101 + Palbociclib; first compound 0.03162 µM): 0.152
- relative viability (CUDC-101 + Palbociclib; first compound 0.1 µM): 0.141
- relative viability (CUDC-101 + Palbociclib; first compound 0.3162 µM): 0.137
- relative viability (CUDC-101 + Palbociclib; first compound 1 µM): 0.119
- relative viability ([1]; first compound 0.005 µM): 0.436
- relative viability ([1]; first compound 0.01581 µM): 0.413
- relative viability ([1]; first compound 0.05 µM): 0.463
- relative viability ([1]; first compound 0.1581 µM): 0.518
- relative viability ([1]; first compound 0.5 µM): 0.481
- relative viability ([2]; first compound 0.005 µM): 0.603
- relative viability ([2]; first compound 0.01581 µM): 0.795
- relative viability ([2]; first compound 0.05 µM): 0.802
- relative viability ([2]; first compound 0.1581 µM): 0.981
- relative viability ([2]; first compound 0.5 µM): 0.744
- relative viability (Vandetanib + Luminespib; first compound 0.02 µM): 0.336
- relative viability (Vandetanib + Luminespib; first compound 0.06325 µM): 0.471
- relative viability (Vandetanib + Luminespib; first compound 0.2 µM): 0.461
- relative viability (Vandetanib + Luminespib; first compound 0.6325 µM): 0.218
- relative viability (Vandetanib + Luminespib; first compound 2 µM): 0.239

Cell Line: LK-2
- relative viability (CUDC-101 + Palbociclib; first compound 0.01 µM): 0.824
- relative viability (CUDC-101 + Palbociclib; first compound 0.03162 µM): 0.662
- relative viability (CUDC-101 + Palbociclib; first compound 0.1 µM): 0.574
- relative viability (CUDC-101 + Palbociclib; first compound 0.3162 µM): 0.593
- relative viability (CUDC-101 + Palbociclib; first compound 1 µM): 0.194
- relative viability ([1]; first compound 0.01581 µM): 0.931
- relative viability ([1]; first compound 0.05 µM): 0.917
- relative viability ([1]; first compound 0.1581 µM): 1.15
- relative viability ([1]; first compound 0.5 µM): 0.819
- relative viability ([2]; first compound 0.05 µM): 0.993
- relative viability ([2]; first compound 0.1581 µM): 1.3
- relative viability ([2]; first compound 0.5 µM): 1.11
- relative viability (Vandetanib + Luminespib; first compound 0.02 µM): 0.189
- relative viability (Vandetanib + Luminespib; first compound 0.06325 µM): 0.163
- relative viability (Vandetanib + Luminespib; first compound 0.2 µM): 0.235
- relative viability (Vandetanib + Luminespib; first compound 0.6325 µM): 0.156
- relative viability (Vandetanib + Luminespib; first compound 2 µM): 0.214

Cell Line: EPLC-272H
- relative viability (CUDC-101 + Palbociclib; first compound 0.01 µM): 0.318
- relative viability (CUDC-101 + Palbociclib; first compound 0.03162 µM): 0.314
- relative viability (CUDC-101 + Palbociclib; first compound 0.1 µM): 0.279
- relative viability (CUDC-101 + Palbociclib; first compound 0.3162 µM): 0.282
- relative viability (CUDC-101 + Palbociclib; first compound 1 µM): 0.261
- relative viability ([1]; first compound 0.005 µM): 0.784
- relative viability ([1]; first compound 0.01581 µM): 0.642
- relative viability ([1]; first compound 0.05 µM): 1.02
- relative viability ([1]; first compound 0.1581 µM): 1.15
- relative viability ([1]; first compound 0.5 µM): 0.684
- relative viability ([2]; first compound 0.005 µM): 0.854
- relative viability ([2]; first compound 0.01581 µM): 0.819
- relative viability ([2]; first compound 0.05 µM): 1.02
- relative viability ([2]; first compound 0.1581 µM): 1.03
- relative viability ([2]; first compound 0.5 µM): 0.768
- relative viability (Vandetanib + Luminespib; first compound 0.02 µM): 0.265
- relative viability (Vandetanib + Luminespib; first compound 0.2 µM): 0.272
- relative viability (Vandetanib + Luminespib; first compound 0.6325 µM): 0.756
- relative viability (Vandetanib + Luminespib; first compound 2 µM): 0.276

Cell Line: NCI-H1563
- relative viability ([1]; first compound 0.005 µM): 0.857
- relative viability ([1]; first compound 0.01581 µM): 0.871
- relative viability ([1]; first compound 0.05 µM): 0.775
- relative viability ([1]; first compound 0.1581 µM): 0.938
- relative viability ([1]; first compound 0.5 µM): 0.916
- relative viability ([2]; first compound 0.005 µM): 0.924
- relative viability ([2]; first compound 0.01581 µM): 0.869
- relative viability ([2]; first compound 0.05 µM): 0.947
- relative viability ([2]; first compound 0.1581 µM): 0.962
- relative viability ([2]; first compound 0.5 µM): 0.861
- relative viability (Vandetanib + Luminespib; first compound 0.02 µM): 0.552
- relative viability (Vandetanib + Luminespib; first compound 0.06325 µM): 0.53
- relative viability (Vandetanib + Luminespib; first compound 0.2 µM): 0.515
- relative viability (Vandetanib + Luminespib; first compound 0.6325 µM): 0.518
- relative viability (Vandetanib + Luminespib; first compound 2 µM): 0.473

Reference: the supplement of paper PMC10307832
